How the values were obtained:
PEO1 [1] = test: Synergistic cytotoxicity against human PEO1 cells assessed as combination index at 44 uM after 72 hrs in presence of 2 uM of cisplatin by ATPlite assay; format: functional
PEO1 [2] = test: Synergistic cytotoxicity against human PEO1 cells assessed as combination index at 44 uM after 72 hrs in presence of 10 uM of paclitaxel by ATPlite assay; format: functional
PEO1 [3] = test: Cytotoxicity against human PEO1 cells assessed as inhibition of cell growth after 72 hrs by ATPlite assay; format: functional, cell-based; details: PEO1, 72 h
PEO1 [4] = test: Synergistic cytotoxicity against human PEO1 cells assessed as combination index at 44 uM after 72 hrs in presence of 1 uM of cisplatin by ATPlite assay; format: functional
PEO1 [5] = test: Synergistic cytotoxicity against human PEO1 cells assessed as combination index at 44 uM after 72 hrs in presence of 10000 uM of paclitaxel by ATPlite assay; format: functional
PEO1 [6] = test: Synergistic cytotoxicity against human PEO1 cells assessed as combination index at 44 uM after 72 hrs in presence of 1 uM of paclitaxel by ATPlite assay; format: functional
PEO1 [7] = test: Synergistic cytotoxicity against human PEO1 cells assessed as combination index at 44 uM after 72 hrs in presence of 1000 uM of paclitaxel by ATPlite assay; format: functional
PEO1 [8] = test: Synergistic cytotoxicity against human PEO1 cells assessed as combination index at 44 uM after 72 hrs in presence of 5 uM of cisplatin by ATPlite assay; format: functional
PEO1 [9] = test: Synergistic cytotoxicity against human PEO1 cells assessed as combination index at 44 uM after 72 hrs in presence of 0.1 uM of cisplatin by ATPlite assay; format: functional
PEO1 [10] = test: Synergistic cytotoxicity against human PEO1 cells assessed as combination index at 44 uM after 72 hrs in presence of 100 uM of paclitaxel by ATPlite assay; format: functional
PEO1 [11] = test: Synergistic cytotoxicity against human PEO1 cells assessed as combination index at 44 uM after 72 hrs in presence of 10 uM of cisplatin by ATPlite assay; format: functional

SMILES: CC1=C(C#N)C(O)=NC(=O)/C1=C\c1ccc(-c2ccccc2)o1
- CI (PEO1 [1]): 1.01
- CI (PEO1 [2]): 1.05
- IC50 (PEO1 [3]): 44 µM
- CI (PEO1 [4]): 1.08
- CI (PEO1 [5]): 287.79
- CI (PEO1 [6]): 0.87
- CI (PEO1 [7]): 29.58
- CI (PEO1 [8]): 1.03
- CI (PEO1 [9]): 0.81
- CI (PEO1 [10]): 4.68
- CI (PEO1 [11]): 0.69

SMILES: CC(=O)O[C@H]1C(=O)[C@@]2(C)[C@H]([C@H](OC(=O)c3ccccc3)[C@]3(O)C[C@H](OC(=O)[C@H](O)[C@@H](NC(=O)c4ccccc4)c4ccccc4)C(C)=C1C3(C)C)[C@]1(OC(C)=O)CO[C@@H]1C[C@@H]2O [PACLITAXEL]
- IC50 (PEO1 [3]): 7 µM
